{"source": "patent US10369340B2", "about": "“Device and method for sustained release of low water solubility therapeutic agent in solubilizer” (N[…], INC., priority 2013, dated 2019)", "key": {"[1]": {"assay": "solubility of testosterone in water and in ethanol", "assay_type": "physicochemical", "conditions": "ethanol relative to water", "description": "During use, IDD 100 can be used to administer API 200 by inserting IDD 100 into an area of a human anatomy, including for example, subcutaneously. With IDD 100 inserted into the desired anatomical area, portions of solubilizer 210 (with dissolved API 200) that are small enough to pass through channeled member 130 can be released over time into the area of the human anatomy or for systemic circulation. In certain embodiments, the solubility enhancement of API 200 and solubilizer 210 can range from approximately 2×, 3×, 4×, 5×, 6×, 7×, 8×, 9×, 10×, 11×, 12×, 13×, 14×, 15×, 16×, 17×, 18×, 19×, 20×, 21×, 22×, 23×, 24×, 25×, 26×, 27×, 28×, 29×, 30× or higher. In particular embodiments, the solubility enhancement can be up to 1000× and higher."}, "[2]": {"conditions": "cited from earlier work"}}}
{"smiles": "C[C@]12CC[C@H]3[C@@H](CCC4=CC(=O)CC[C@@]43C)[C@@H]1CC[C@@H]2O", "note": "[testosterone]", "values": [{"measurement": "solubility enhancement (increase, ethanol vs water)", "setting": "[1]", "result": "20,000 ×"}, {"measurement": "solubility in ethanol", "setting": "[2]; ethanol", "result": "approximately 750 mg/ml"}, {"measurement": "native water solubility", "setting": "[2]; water", "result": 35, "unit": "µg/mL"}]}
